Results as given in PMC4048267, “Purification and Characterization of a Novel and Robust L-Asparaginase Having Low-Glutaminase Activity from Bacillus licheniformis: In Vitro Evaluation of Anti-Cancerous Properties” (PLoS ONE, 2014).

System: T1, L-asparaginase from Bacillus licheniformis RAM-8
T1 construct: gene L-asparagine amidohydrolase
Conditions: 25 °C; L-asparagine 2 to 20 mM; assay buffer 50 mM Tris-HCl pH 8.6

- Km: 14 µM
SMILES: NC(=O)C[C@H](N)C(=O)O [L-asparagine]
